Results from patent publication US20240124454A1, “TRICYCLIC COMPOUND AND USE THEREOF” (NANJING ZAIMING PHARMACEUTICAL CO., LTD., priority 2020, published 2024).
Read-outs that look alike come from different tables or passages of the source.

What was measured:
MAT2A = MAT2A (Homo sapiens (Human), UniProt P31153); assay: MAT2A biochemical test (inorganic phosphate colorimetric, PiColorLock); details: read-out: MAT2A inhibitory Activity IC50
Source text: Test Example 1. Biochemical Test
The brief introduction of the test principle: L-methionine and ATP can be converted into SAM, inorganic phosphate, and inorganic diphosphate under the catalysis of MAT2A enzymes. The content of inorganic phosphate in the sample can be quantitatively determined by adding a developer such as ammonium molybdate or the like to the enzymatic reaction mixture, thereby reflecting the enzymatic activity of MAT2A.
(§1) Reference: The experiment referred to the method disclosed in patent WO2018045071.
Material: MAT2A screening kits were purchased from BPS bioscience (U.S.); 384-well plates were purchased from Corning Company (U.S.). • 1. MAT2A protein (Pharmaron Beijing Co., Ltd.); • 2. L-methionine (Sigma #M9625-5G) • 3. ATP (Sigma #A7699-1G) • 4. KCl (Sigma #60142-500ML-F) • 5. Tris (Sigma #T2663-1L) • 6. MgCl2 (Sigma #M1028) • 7. EDTA (Invitrogen #AM9260G) • 8. BSA (Sangon Biotech #A500023-0100) • 9. PiColorLock (abcam #ab270004)
Detection method: In the experimental group, the test compound was dissolved in DMSO, diluted to a final concentration of 10 μM using Echo, and diluted 3-fold. 80 nL of the dilution was transferred to a 384-well plate.
The experimental buffer (50 mM Tris, 50 mM KCl, 15 mM MgCl2, 100 μM EDTA, 0.005% BSA) was prepared. The MAT2A protein was diluted with the experimental buffer (at final concentration of […]). 40 μL of 2×MAT2A solution was added to the 384-well plate. The plate was centrifuged at 1000 rpm for 1 min and incubated at room temperature for 120 min.
L-methionine and ATP (the final concentration of L-methionine was […] and the final concentration of ATP was 400 μM) were diluted with the experimental buffer. 40 μL of 2×L-methionine and ATP solution was added to initiate the reaction. The plate was centrifuged at 1000 rpm for 1 min and incubated at room temperature for 90 min.
The PiColorLock™ reaction catalyst was mixed with the PiColorLock™ buffer at a ratio of 1:100 according to the instructions. 20 μL was added to each well, and the plate was shaken for 30 s. 8 μL stabilizing reagent was added, and the plate was shaken for 30 s. The signal values were measured after 30 min of incubation at room temperature.
(§2) A negative control group and a positive control group were respectively used as Bottom and Top. The negative control group was not added with MAT2A protein, and other operations were consistent with those of the experimental group. The positive control group was not added with the test compound, only added with DMSO in the same volume, and other operations were consistent with those of the experimental group.
(§3) The % Compound inhibition was calculated and fitted to give the IC50 of the compound.
(§4) % Compound inhibition=1-100%×(Signal−Bottom)/(Top−Bottom).
(§5) Signal referred to the signal value of the experimental group, Bottom referred to the average signal value of the negative control group, and Top referred to the average signal value of the positive control group.
Under the condition of this experiment, the inhibitory effect of the test compound on MAT2A can be expressed as the IC50 of the inhibition on the phosphate production level during the enzymatic reaction.

HCT116 MTAP^−/− cells = assay: Cell proliferation inhibition test (Cell-Titer Glo), HCT116 MTAP−/−; format: cell-based, human; details: Homo sapiens, HCT-116, 144 h, 6 days, read-out: HCT116 MTAP−/− Antiproliferative activity IC50
Method: (§6) Test Example 3. Cell Proliferation Inhibition Test of Human Colon Cancer HCT116 WT Cells and HCT116 MTAP-1-Cells
(§7) The brief introduction of the test principle: After the test MAT2A inhibitor was incubated with cancer cells for a period of time, the effect of the test compound on cell proliferation was measured using a cell proliferation count method based on the ATP content.
as §1
(§8) Material and cell: HCT116 WT cells and HCT116 MTAP^−/− cells were purchased from KYinno; fetal bovine serum, McCoy's 5a culture medium, and penicillin-streptomycin were purchased from Gibco Company (U.S.), 96-well plates were purchased from Corning Company (U.S.), and the Cell-Titer Glo reagent was purchased from Promega Company (U.S.).
(§9) Cell culture: HCT116 WT cells and HCT116 MTAP^−/− cells were cultured with a McCoy's 5a medium containing 10% fetal bovine serum+1% penicillin-streptomycin at 37° C. with 5% CO2.
(§10) Cells at logarithmic growth phase were available for the experiment.
(§11) Cell proliferation activity test: The Cell-Titer Glo reagent was used to test the compound for inhibitory activity on proliferation of both HCT116 WT and HCT116 MTAP^−/− cell strains. The cells were adjusted to a concentration of 400 cells per well, seeded on a 96-well plate, and incubated overnight at 37° C. with 5% CO2.
(§12) In the experimental group, the test compound was diluted sequentially with DMSO and a culture medium, and transferred to a cell plate at a final concentration of 10 μM, 3-fold dilution. The cells were continuously cultured at 37° C. with 5% CO2 for 6 days. The Cell-Titer Glo reagent was added and the cell activity was measured.
as §2, with “cells, only added with the culture medium in the same volume,” for “MAT2A protein,”
as §3, §4, §5
(§13) HCT116 MTAP^−/− cells are cells not expressing MTAP protein obtained by site-directed knockout of wild type HCT116 (HCT116 WT) cells by gene knockout. Synthetic lethality will occur due to MAT2A inhibition and the deletion of MTAP, thereby causing tumor cell death. The activity and selectivity of the MAT2A inhibitor can be evaluated by testing the antiproliferative activity of the MAT2A inhibitor on human colon cancer HCT116 MTAP^−/− cells and human colon cancer HCT116 WT.

HCT116 WT cells = assay: Cell proliferation inhibition test (Cell-Titer Glo), HCT116 WT; format: cell-based, human; details: Homo sapiens, HCT-116, 144 h, 6 days, read-out: HCT116 WT Antiproliferative activity IC50
Method: as §6, §7, §1, §8, §9, §10, §11, §12
as §2, with “cells, only added with the culture medium in the same volume,” for “MAT2A protein,”
as §3, §4, §5, §13

Chain of MAT2A (P31153 whole entry): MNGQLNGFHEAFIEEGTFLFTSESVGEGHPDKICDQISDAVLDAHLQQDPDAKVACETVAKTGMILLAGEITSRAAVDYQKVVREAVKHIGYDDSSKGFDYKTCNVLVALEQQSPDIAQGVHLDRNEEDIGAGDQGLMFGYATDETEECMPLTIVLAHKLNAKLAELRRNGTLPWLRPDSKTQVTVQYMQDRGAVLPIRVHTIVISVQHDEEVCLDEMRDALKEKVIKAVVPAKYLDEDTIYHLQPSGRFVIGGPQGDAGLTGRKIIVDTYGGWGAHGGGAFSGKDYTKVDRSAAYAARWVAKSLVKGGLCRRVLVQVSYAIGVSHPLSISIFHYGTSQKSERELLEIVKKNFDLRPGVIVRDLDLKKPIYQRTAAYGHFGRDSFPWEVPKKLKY

Row | SMILES | IC50 (MAT2A; class symbols) [nM] | IC50 (MAT2A; numeric values) [nM] | IC50 (HCT116 MTAP^−/− cells) [nM] | IC50 (HCT116 WT cells) [nM]
1 | Cn1cnc2c(=O)n(-c3cccnc3C3CC3)c3cc(Cl)ccc3c21 (atropisomer, axis not shown) [Compound 49, 7-chloro-5-(2-cyclopropylpyridin-3-yl)-1-methyl-1,5-dihydro-4H-imidazo[4,5-c]quinolin-4-one] | < 100 | 28.1 | 87.9 | 1620
2 | Cn1cnc2c(=O)n(-c3cccc(C#N)c3Cl)c3nc(C(F)(F)F)ccc3c21 (single isomer, unassigned) [Compound 73-P2, 2-chloro-3-(1-methyl-4-oxo-7-(trifluoromethyl)-1,4-dihydro-5H-imidazo[4,5-c][1,8]naphthyridin-5-yl)benzonitrile] | < 100 | 27.3 | 194 | 2210
3 | Cc1ncccc1-n1c(=O)c2ncoc2c2ccc(C(F)(F)F)cc21 (single isomer, unassigned) [Compound 82-P2, 5-(2-methylpyridin-3-yl)-7-(trifluoromethyl)oxazolo[4,5-c]quinolin-4(5H)-one] | < 100 | 23.1 | 50.2 | 271
4 | Cc1ncccc1-n1c(=O)c2ncoc2c2ccc(Cl)cc21 (single isomer, unassigned) [Compound 83-P2, 7-chloro-5-(2-methylpyridin-3-yl)oxazolo[4,5-c]quinolin-4(5H)-one] | < 100 | 23.1 | 54.3 | 203
5 | COc1nc2c(=O)n(-c3ccccc3Cl)c3nc(C(F)(F)F)ccc3c2[nH]1 [Compound 5, 5-(2-chlorophenyl)-2-methoxy-7-(trifluoromethyl)-1,5-dihydro-4H-imidazo[4,5-c][1,8]naphthyridin-4-one] | < 100 | 41.6 | 274 | > 10000
6 | O=c1c2[nH]ncc2c2ccc(C(F)(F)F)nc2n1-c1ccccc1Cl [Compound 6, 5-(2-chlorophenyl)-7-(trifluoromethyl)-3,5-dihydro-4H-pyrazolo[3,4-c][1,8]naphthyridin-4-one] | < 100 | 50.1 | 288 | 1110
7 | Cn1cnc2c(=O)n(-c3cccnc3C(F)(F)F)c3cc(C(F)(F)F)ccc3c21 [Compound 84, 1-methyl-7-(trifluoromethyl)-5-(2-trifluoromethylpyridin-3-yl)-1,5-dihydro-4H-imidazo[4,5-c]quinolin-4-one] | < 100 | 53.4 |  | 

The remaining lines, values ahead:

Row | IC50 (MAT2A; class symbols) [nM] | IC50 (MAT2A; numeric values) [nM] | IC50 (HCT116 MTAP^−/− cells) [nM] | IC50 (HCT116 WT cells) [nM] | SMILES
8 | < 100 | 56.8 | 164 | 7860 | Cn1cnc2c(=O)n(-c3cccnc3C(F)(F)F)c3nc(C(F)(F)F)ccc3c21 (atropisomer, axis not shown) [Compound 41, 1-methyl-7-(trifluoromethyl)-5-(2-(trifluoromethyl)pyridin-3-yl)-1,5-dihydro-4H-imidazo[4,5-c][1,8]naphthyridin-4-one]
9 | < 100 | 47 | 244 | 2200 | Cn1cnc2c(=O)n(-c3cccnc3C3CC3)c3nc(C(F)(F)F)ccc3c21 (atropisomer, axis not shown) [Compound 42, 5-(2-cyclopropylpyridin-3-yl)-1-methyl-7-(trifluoromethyl)-1,5-dihydro-4H-imidazo[4,5-c][1,8]naphthyridin-4-one]
10 | < 100 | 48.5 | 87 | 473 | Cc1ncccc1-n1c(=O)c2ncn(C)c2c2ccc(Cl)cc21 (atropisomer, axis not shown) [Compound 46, 7-chloro-1-methyl-5-(2-methylpyridin-3-yl)-1,5-dihydro-4H-imidazo[4,5-c]quinolin-4-one]
11 | < 100 | 50.2 | 232 | > 10000 | Cn1cnc2c(=O)n(-c3cccnc3C(F)(F)F)c3cc(Cl)ccc3c21 (atropisomer, axis not shown) [Compound 47, 7-chloro-1-methyl-5-(2-(trifluoromethyl)pyridin-3-yl)-1,5-dihydro-4H-imidazo[4,5-c]quinolin-4-one]
12 | < 100 | 52.3 | 186 | 1940 | O=c1c2ncoc2c2ccc(C(F)(F)F)nc2n1-c1cccnc1C1CC1 (atropisomer, axis not shown) [Compound 81, 5-(2-cyclopropylpyridin-3-yl)-7-(trifluoromethyl)oxazolo[4,5-c][1,8]naphthyridin-4(5H)-one]
13 | < 100 | 28.2 | 79 | 355 | Cc1c(F)cccc1-n1c(=O)c2ncn(C)c2c2ccc(C(F)(F)F)nc21 (single isomer, unassigned) [Compound 43-P2, 5-(3-fluoro-2-methylphenyl)-1-methyl-7-(trifluoromethyl)-1,5-dihydro-4H-imidazo[4,5-c][1,8]naphthyridin-4-one]
14 | < 100 | 19.8 | 33 | 214 | Cc1ncccc1-n1c(=O)c2ncn(C)c2c2ccc(Cl)cc21 (single isomer, unassigned) [Compound 46-P2, 7-chloro-1-methyl-5-(2-methylpyridin-3-yl)-1,5-dihydro-4H-imidazo[4,5-c]quinolin-4-one]
15 | < 100 | 23.3 | 130 | 8330 | Cn1cnc2c(=O)n(-c3cccnc3C(F)(F)F)c3cc(Cl)ccc3c21 (single isomer, unassigned) [Compound 47-P2, 7-chloro-1-methyl-5-(2-(trifluoromethyl)pyridin-3-yl)-1,5-dihydro-4H-imidazo[4,5-c]quinolin-4-one]
16 | < 100 | 37.9 | 490 | 7940 | COc1c(F)cccc1-n1c(=O)c2ncn(C)c2c2ccc(C(F)(F)F)nc21 (single isomer, unassigned) [Compound 70-P2, 5-(3-fluoro-2-methoxyphenyl)-1-methyl-7-(trifluoromethyl)-1,5-dihydro-4H-imidazo[4,5-c][1,8]naphthyridin-4-one]
